Measurements from patent publication US6642225B2, “Diazacycloalkanedione derivatives” (Novartis AG, priority 2000, dated 2003).

What was measured:
carrageenan paw swelling = assay: Rat carrageenan edema model; assay type: in vivo, OFA rats; conditions: about 0.3 to 30 mg/kg p.o.
Experimental: iii) Rat Carrageenan Edema Model Male OFA rats are treated orally with the compound to be tested or vehicle (saline). One to three hours later (0 hours) the rats receive a 100 μl intra-plantar injection of a 1% w/v carrageenan solution in 0.9% saline in the hind paw and the diameter of the paw is measured by means of a micro-calliper. The paw diameter measurements are repeated at times +3 and +5 hours after injection of the carrageenan.

[1] = system: mBSA antigen-induced arthritis; assay: Mouse antigen-induced arthritis model; assay type: in vivo, OFA-1 mice; conditions: about 0.3 to 30 mg/kg p.o.
Experimental: iv) Mouse Antigen-induced Arthritis Model The test for rheumatoid arthritis is carried out by a modification of that described by Van de Loo et al., Arthritis Rheum. 1995; 35:164-172, e.g., as follows: Female OFA-1 mice are sensitised intradermally on the back at two sites to methylated bovine serum albumin (mBSA) homogenised 1:1 with complete Freund's adjuvant on days −21 and −14 (0.1 ml containing 1 mg/ml mBSA). On day 0, the right knee receives 10 μl of 10 mg/ml mBSA in 5% glucose solution (antigen injected knee), while the left knee receives 10 μl of 5% glucose solution alone (vehicle injected knee). The diameters of the left and right knees are then measured using calipers immediately after the intra-articular injections and again on days 2, 4, 7, 9, 11 and 14. […] Right knee swelling is calculated as a ratio of left knee swelling, and the R/L knee swelling ratio plotted against time to give Area Under the Curve (AUC) graphs for control and treatment groups. The percentage inhibition of the individual treatment group AUCs are calculated vs the control group AUC (0% inhibition) using an Excel spreadsheet. […] After staining, the slides are number coded as left knee/right knee pairs from each animal and scored in a blinded fashion for inflammatory cell infiltrate/hyperplasia, joint damage/erosions and cartilage proteoglycan loss.

human LFA-1 = target: T1, human LFA-1 (Homo sapiens, UniProt P20701); assay: Cell free assay: binding of soluble human ICAM-1 to immobilized human LFA-1
T1 construct: endogenous in cells; host or cells: JY cells (human lymphoblastoid B cell line)
T1 sequence (P20701 26-1170): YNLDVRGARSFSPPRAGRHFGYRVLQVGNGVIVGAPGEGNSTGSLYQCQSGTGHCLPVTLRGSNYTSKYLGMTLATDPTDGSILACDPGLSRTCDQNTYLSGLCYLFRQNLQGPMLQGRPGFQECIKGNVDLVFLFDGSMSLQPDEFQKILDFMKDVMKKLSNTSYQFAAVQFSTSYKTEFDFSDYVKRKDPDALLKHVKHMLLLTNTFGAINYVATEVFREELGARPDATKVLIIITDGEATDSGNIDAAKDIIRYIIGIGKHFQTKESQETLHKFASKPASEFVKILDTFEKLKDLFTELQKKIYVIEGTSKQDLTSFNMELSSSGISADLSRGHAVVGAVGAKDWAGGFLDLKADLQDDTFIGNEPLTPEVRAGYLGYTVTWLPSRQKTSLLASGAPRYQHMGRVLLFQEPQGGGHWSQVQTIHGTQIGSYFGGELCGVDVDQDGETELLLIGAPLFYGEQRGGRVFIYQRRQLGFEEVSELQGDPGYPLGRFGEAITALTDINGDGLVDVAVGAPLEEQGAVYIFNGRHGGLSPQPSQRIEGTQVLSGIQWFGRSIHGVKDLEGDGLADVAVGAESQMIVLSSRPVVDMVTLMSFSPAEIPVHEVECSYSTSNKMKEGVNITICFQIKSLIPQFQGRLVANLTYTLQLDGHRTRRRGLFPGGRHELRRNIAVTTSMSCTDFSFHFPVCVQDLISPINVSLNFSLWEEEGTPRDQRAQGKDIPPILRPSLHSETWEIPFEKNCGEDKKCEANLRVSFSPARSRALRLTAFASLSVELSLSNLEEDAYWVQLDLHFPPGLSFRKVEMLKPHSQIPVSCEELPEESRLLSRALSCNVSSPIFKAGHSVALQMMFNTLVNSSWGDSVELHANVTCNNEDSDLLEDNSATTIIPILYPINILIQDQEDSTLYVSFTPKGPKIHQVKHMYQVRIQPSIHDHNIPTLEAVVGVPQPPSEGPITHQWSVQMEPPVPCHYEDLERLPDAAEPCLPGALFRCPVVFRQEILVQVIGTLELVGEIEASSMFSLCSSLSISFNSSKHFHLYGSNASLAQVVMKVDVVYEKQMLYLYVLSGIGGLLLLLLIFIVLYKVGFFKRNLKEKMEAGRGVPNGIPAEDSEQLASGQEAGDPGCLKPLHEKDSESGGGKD
T1 sequence (P05107 23-769 partner): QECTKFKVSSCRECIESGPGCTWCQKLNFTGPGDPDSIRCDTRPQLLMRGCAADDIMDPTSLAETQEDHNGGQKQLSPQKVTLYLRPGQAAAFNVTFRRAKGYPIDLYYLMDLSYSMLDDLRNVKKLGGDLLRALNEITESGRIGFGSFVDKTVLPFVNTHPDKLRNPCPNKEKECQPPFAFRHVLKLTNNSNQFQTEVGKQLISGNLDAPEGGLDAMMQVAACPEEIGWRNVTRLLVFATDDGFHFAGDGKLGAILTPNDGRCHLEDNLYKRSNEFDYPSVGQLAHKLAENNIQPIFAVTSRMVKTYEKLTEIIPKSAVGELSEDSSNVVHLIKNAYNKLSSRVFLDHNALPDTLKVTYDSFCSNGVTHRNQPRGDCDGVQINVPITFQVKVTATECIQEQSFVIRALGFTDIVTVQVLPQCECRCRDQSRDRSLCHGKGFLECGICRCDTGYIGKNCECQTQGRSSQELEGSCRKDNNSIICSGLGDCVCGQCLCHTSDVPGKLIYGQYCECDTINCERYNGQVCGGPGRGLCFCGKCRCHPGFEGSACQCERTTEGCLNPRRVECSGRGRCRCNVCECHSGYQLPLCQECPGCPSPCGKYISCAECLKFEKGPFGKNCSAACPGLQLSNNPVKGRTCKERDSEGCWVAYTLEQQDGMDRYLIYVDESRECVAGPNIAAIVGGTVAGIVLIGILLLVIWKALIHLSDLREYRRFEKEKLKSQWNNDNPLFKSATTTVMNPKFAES
Experimental: A. In Vitro: Cell Free Assay
The assay measures the binding of soluble human ICAM-1 to immobilized human LFA-1. LFA-1 is purified from JY cells, a human lymphoblastoid B cell-line, by immunoaffinity chromatography as described by Dustin et al. (J. Immunol. 148, 2654-2663, 1992). ICAM-1 mouse Cκ fusion protein (ICAM-1) is produced using the baculovirus system as described by Weitz-Schmidt et al. (Anal. Biochem.238, 184-190, 1996).
Purified LFA-1 is diluted 1:20 in phosphate buffered saline (PBS) containing 2 mM MgCl2, pH 7.4 and coated onto microtitre plates (Nunc) at 37° C. for 3 h. Plates are blocked with 1% heat-treated BSA in PBS for 2 hours at 37° C. followed by a washing step using PBS, 2 mM MgCl2, 1% fetal calf serum, pH 7.4 (assay buffer). Compounds dissolved at 10 mM in DMSO are diluted in assay buffer and added to the plates. Biotinylated recombinant ICAM-1 in assay buffer (6 μg/ml) is added and allowed to bind at 37° C. for one hour. After incubation, wells are washed with assay buffer. Streptavidin-peroxidase diluted 1:5000 in assay buffer is added and incubated for 45 min at 37° C. Plates are then washed with assay buffer and 2,2′-azino-bis(3-ethylbenzothiazoline-6 sulfonic acid) diammonium salt substrate solution is added to each well. The reaction is stopped after 20 min and bound ICAM-1 is determined by measuring the optical density at 405 nm in a microplate reader.

Q: Which results are given for CNC(=O)[C@H](Cc1ccc2ccccc2c1)N1CCC(=O)N(Cc2cnc3ccccc3c2)[C@@H](CC(C)C)C1=O [Example 1, 1H-1,4-Diazepine-1-acetamide, hexahydro-N-methyl-3-(2-methylpropyl)-α-[(2-naphthalenyl)methyl]-2,5-dioxo-4-[(3-quinolinyl)methyl]-, (αS,3S)-]?
A: inhibition of paw swelling (carrageenan paw swelling): inhibits paw swelling; inhibition of knee swelling [1]: inhibits knee swelling; histological damage to the knee ([1]; day 14 histology): significantly reduces the histological damage to the knee; IC50 (human LFA-1): ~30 nM
